Data published in publication PMC8126888 (RSC Medicinal Chemistry, 2020).
Like-named read-outs stand apart in the source and are kept apart here.

How the values were obtained:
[1] = test system: primary peritoneal mouse macrophages (PMM); assay: cells; settings: Macrophage
in vitro [2] = settings: mouse, microsomes
[3] = test system: Leishmania infantum MHOM/MA(BE)/67/ITMAP263 intracellular amastigotes; assay: microbe, parasite or virus in culture; settings: Macrophage, in Mus musculus
in vitro [4] = settings: human, microsomes
[5] = test system: Leishmania infantum MHOM/MA(BE)/67/ITMAP263 intracellular amastigotes; settings: intracellular amastigotes in PMM
in vitro [6] = settings: human
[7] = test system: Trypanosoma cruzi, Tulahuen CL2, beta-galactosidase strain; assay: microbe, parasite or virus in culture
in vitro [8] = settings: human, HepG2 cells
in vitro [9] = settings: human, HFF-1 cells
in vitro [10] = settings: PAMPA
[11] = read-out: PMM pIC50 (converted)
[12] = pH 7.4, Microsome Clint,u Mouse, Table 2, intrinsic in vitro clearance, liver microsomes
[13] = read-out: L. inf. pIC50, intracellular amastigotes in PMM (converted), geometric mean of a minimum of two experiments ± standard error
[14] = pH 7.4, Microsome Clint,u Human, Table 2, intrinsic in vitro clearance, liver microsomes
[15] = HPLC, Ascentis Express RP Amide column, pH 7.4, elog D, HPLC measured log D, pH 7.4
[16] = pH 7.4, MLM CLint, mouse liver microsomes
[17] = read-out: L. Inf. pIC50, from L. infantum intracellular amastigote IC50 (converted)
[18] = read-out: L. infantum MHOM/MA(BE)/67/ITMAP263 intracellular amastigotes IC50, intracellular amastigotes
[19] = pH 7.4, HLM CLint, human liver microsomes
[20] = MRC5, read-out: T. cruzi Tulahuen C4 (LacZ) IC50
[21] = HPLC, Ascentis Express RP Amide column, pH 7.4, eLogD, experimental
[22] = read-out: L. infantum MHOM/MA(BE)/67/ITMAP263 intracellular amastigotes IC50 (uM), intracellular amastigotes
[23] = MRC5, read-out: T. cruzi Tulahuen C4 (LacZ) IC50 (uM)
[24] = pH 7.4, MLM CLint (uL/min/mg), mouse liver microsomes
[25] = pH 7.4, HLM CLint (uL/min/mg), human liver microsomes

SMILES | IC50 [1, 11] [µM] | IC50 [3, 13] [µM] | chromatographic logD (physchem; [15]) | IC50 [3, 17] [µM] | CC50 at 3 days (in vitro [6]) [µM] | chromatographic logD (physchem; [21]) | IC50 ([1]; read-out: PMM IC50 (uM)) [µM] | CC50 (in vitro [8]) [µM] | IC50 [3, 22] [µM] | IC50 [7, 23] [µM] | CC50 (in vitro [9]) [µM] | other results
COc1ccc(OC)c(S(=O)(=O)N(Cc2ccc(F)cc2)Cc2ccnn2C)c1 [Compound 35] | 45.7 | 5.25 | 3.5 |  |  |  |  |  |  |  |  | microsomal CLint at 0.5 μM (in vitro [2]; [12]): 5480 µL/min/mg; microsomal CLint at 0.5 h, 0.5 µM (in vitro [4]; [14]): 651 µL/min/mg
COc1ccc(OC)c(S(=O)(=O)N(Cc2ccc(F)cc2)Cc2nc(C)no2)c1 [Compound 36] | > 64.6 | 7.76 | 3.5 |  |  |  |  |  |  |  |  | microsomal CLint at 0.5 h, 0.5 µM (in vitro [2]; [12]): 3050 µL/min/mg; microsomal CLint at 0.5 μM (in vitro [4]; [14]): 350 µL/min/mg
CCN(Cc1ccccc1)S(=O)(=O)c1cc(OC)ccc1OC [Compound 38] | > 64.6 | 2.09 | 3.8 |  |  |  |  |  |  |  |  | L. inf. pIC50 ([5]; geometric mean of a minimum of two experiments ± standard error): 5.60 ± 0.03; microsomal CLint at 0.5 μM (in vitro [2]; [12]): 3500 µL/min/mg; microsomal CLint at 0.5 μM (in vitro [4]; [14]): 534 µL/min/mg; chromatographic logD (physchem; pH 7.4, elog D, HPLC measured log D, pH 7.4): 3.5
COCCN(Cc1ccc(F)cc1)S(=O)(=O)c1ccccc1OC(F)(F)F [Compound 40] | > 64.6 | 8.32 | 3.8 |  |  |  |  |  |  |  |  | microsomal CLint at 0.5 h, 0.5 µM (in vitro [2]; [12]): 222 µL/min/mg; microsomal CLint at 0.5 h, 0.5 µM (in vitro [4]; [14]): 194 µL/min/mg
COCCN(Cc1ccc(F)cc1)S(=O)(=O)c1cc(C#N)ccc1OC [Compound 41] | > 64.6 | 8.91 | 3.4 |  |  |  |  |  |  |  |  | microsomal CLint at 0.5 h, 0.5 µM (in vitro [2]; [12]): 585 µL/min/mg; microsomal CLint at 0.5 μM (in vitro [4]; [14]): < 23 µL/min/mg
COCCN(Cc1ccc(F)cc1)S(=O)(=O)c1cc(C(=O)N2CCOCC2)ccc1OC [Compound 42] | > 64.6 | 43.7 ± 0.601 | 2.9 |  |  |  |  |  |  |  |  | microsomal CLint at 0.5 μM (in vitro [2]; [12]): 60 µL/min/mg; microsomal CLint at 0.5 μM (in vitro [4]; [14]): 28 µL/min/mg
COc1ccc(C#N)cc1S(=O)(=O)N(Cc1ccc(F)cc1)C1CCOCC1 [Compound 43] | > 64.6 | > 64.6 | 3.4 |  |  |  |  |  |  |  |  | potency against L. inf. in words [5]: inactive; microsomal CLint at 0.5 μM (in vitro [2]; [12]): 253 µL/min/mg; microsomal CLint at 0.5 μM (in vitro [4]; [14]): 194 µL/min/mg
COc1ccc(C(=O)N2CCOCC2)cc1S(=O)(=O)N(Cc1ccc(F)cc1)CC(C)C [Compound 44] | > 64.6 | 6.92 | 3.6 |  |  |  |  |  |  |  |  | microsomal CLint at 0.5 h, 0.5 µM (in vitro [2]; [12]): 1400 µL/min/mg; microsomal CLint at 0.5 h, 0.5 µM (in vitro [4]; [14]): 1050 µL/min/mg
COc1ccc(C#N)cc1S(=O)(=O)N(Cc1ccc(C(F)(F)F)nc1)Cc1ccc(C(F)(F)F)nc1 [Compound 50] | > 64.6 | 38.9 | 3.8 |  |  |  |  |  |  |  |  | potency against L. inf. in words [5]: inactive; microsomal CLint at 0.5 h, 0.5 µM (in vitro [2]; [12]): 95 µL/min/mg; microsomal CLint at 0.5 μM (in vitro [4]; [14]): < 23 µL/min/mg
COc1ccc(OC)c(S(=O)(=O)N(Cc2ccccc2)C2CCCNC2)c1 (centres unmarked) [DNDI0003366131] |  |  |  | 29.5 | 58.5 | 3.2 |  |  |  |  |  | IC50 ([1]; read-out: PMM IC50): > 64 µM; microsomal CLint at 0.5 μM (in vitro [2]; [16]): 96 µL/min/mg; IC50 [3, 18]: 29.5 µM; microsomal CLint at 0.5 μM (in vitro [4]; [19]): 347 µL/min/mg; IC50 [7, 20]: 31.6 µM
COc1ncc(Br)cc1S(=O)(=O)N(Cc1ccc(F)cc1)Cc1ccc(F)cc1 [DNDI0003369122] |  |  |  | 14.8 | > 64 | 5.2 |  |  |  |  |  | IC50 ([1]; read-out: PMM IC50): > 64 µM; microsomal CLint at 0.5 μM (in vitro [2]; [16]): 469 µL/min/mg; IC50 [3, 18]: 14.8 µM; microsomal CLint at 0.5 μM (in vitro [4]; [19]): 95 µL/min/mg; IC50 [7, 20]: 7.43 µM
O=S1(=O)c2cc(F)ccc2OC(c2ccc(F)cc2)CN1Cc1ccccc1 (centres unmarked) [DNDI0003371160] |  |  |  | 20.4 | > 64 | 4.9 |  |  |  |  |  | IC50 ([1]; read-out: PMM IC50): > 64 µM; microsomal CLint at 0.5 μM (in vitro [2]; [16]): 323 µL/min/mg; IC50 [3, 18]: 20.2 µM; microsomal CLint at 0.5 μM (in vitro [4]; [19]): 398 µL/min/mg; IC50 [7, 20]: 7.97 µM
COc1ccc(CN(Cc2ccc(F)cc2)S(=O)(=O)c2cc(C#N)ccc2OC)cc1 [DNDI0003371172] |  |  |  | 2.95 | > 64 |  | > 64 | 35.3 | 2.92 | 13.2 | 22.6 | 
COc1ccc(C(=O)NC2COC2)cc1S(=O)(=O)N(Cc1ccc(F)cc1)Cc1ccc(F)cc1 [DNDI0003371174] |  |  |  | 0.794 | > 64 |  | > 64 | > 64 | 0.79 | 38.5 | > 64 | microsomal CLint at 0.5 μM (in vitro [2]; [24]): 395 µL/min/mg; Papp (in vitro [10]): 4.92 ×10⁻⁶ cm/s; microsomal CLint at 0.5 μM (in vitro [4]; [25]): 178 µL/min/mg
O=S(=O)(c1cc(F)ccc1F)N(Cc1ccccc1)C(CO)c1ccc(F)cc1 (centres unmarked) [DNDI0003378486] |  |  |  | 35.5 | 21.2 |  | > 64 | 24.4 | 35.5 | 13.7 | 1.67 | 
COc1ccc(CN(Cc2ccc(F)cc2)S(=O)(=O)c2cc(OC)ccc2OC)cc1 [DNDI0003388087] |  |  |  | 11.2 | 5.42 | 3.5 | > 64 | 33.2 | 11.3 | 9.04 | 2.44 | microsomal CLint at 0.5 μM (in vitro [2]; [24]): 19 µL/min/mg; microsomal CLint at 0.5 μM (in vitro [4]; [25]): 80 µL/min/mg
COc1ccc(OC)c(S(=O)(=O)N(Cc2ccc(F)cc2)Cc2ccc(C#N)cc2)c1 [DNDI0003388088] |  |  |  | 18.6 | > 64 | 4.1 | > 64 | 36.2 | 18.6 | 19 | 51.9 | Papp (in vitro [10]): 3.57 ×10⁻⁶ cm/s; microsomal CLint at 0.5 μM (in vitro [4]; [25]): 87 µL/min/mg
COc1ccc(CN(Cc2ccc(F)cc2)S(=O)(=O)c2cc(F)ccc2F)cc1 [DNDI0003388150] |  |  |  | 57.5 | > 64 |  | > 64 | > 64 | 57 | 54.4 | > 64 | 
O=S1(=O)c2cc(F)ccc2OCC(c2ccc(F)cc2)N1Cc1ccccc1 (centres unmarked) [DNDI0003389122] |  |  |  | 10.2 | > 64 | 4.9 | 16 | > 64 | 10.2 | > 64 | 12.1 | 
O=[N+]([O-])c1ccc(Cl)cc1S(=O)(=O)N(Cc1ccccc1)Cc1ccc(F)cc1 [DNDI0003389123] |  |  |  | > 64 | > 64 | 5.1 | > 64 | > 64 | > 64 | 26.4 | > 64 | 
N#Cc1ccccc1S(=O)(=O)N(Cc1ccccc1)Cc1ccccc1 [DNDI0003389641] |  |  |  | 11.2 | > 64 | 4.2 | > 64 | > 64 | 11.3 | 18.4 | 1.28 | Papp (in vitro [10]): 1.66 ×10⁻⁶ cm/s; microsomal CLint at 0.5 μM (in vitro [4]; [25]): 577 µL/min/mg
COCCN(Cc1ccc(F)cc1)S(=O)(=O)c1cc(C(=O)N2CCOCC2)ccc1OC [DNDI0003392125] |  |  |  | 22.4 | 22.7 |  | > 64 |  | 22.5 | > 64 |  | microsomal CLint at 0.5 μM (in vitro [2]; [24]): 60 µL/min/mg; Papp (in vitro [10]): 15.4 ×10⁻⁶ cm/s; microsomal CLint at 0.5 μM (in vitro [4]; [25]): 28 µL/min/mg
CNC(=O)c1ccc(OC)c(S(=O)(=O)N(CCOC)Cc2ccccc2)c1 [DNDI0003392128] |  |  |  | 28.2 | > 64 | 2.7 | > 64 |  | 28.1 | > 64 |  | microsomal CLint at 0.5 μM (in vitro [2]; [24]): 393 µL/min/mg; Papp (in vitro [10]): 7.61 ×10⁻⁶ cm/s; microsomal CLint at 0.5 μM (in vitro [4]; [25]): 23 µL/min/mg
COCCN(Cc1ccccc1)S(=O)(=O)c1cc(C(=O)NC2COC2)ccc1OC [DNDI0003392129] |  |  |  | 15.5 | > 64 | 2.7 | > 64 |  | 15.5 | > 64 |  | microsomal CLint at 0.5 μM (in vitro [2]; [24]): 114 µL/min/mg; Papp (in vitro [10]): 4.72 ×10⁻⁶ cm/s; microsomal CLint at 0.5 μM (in vitro [4]; [25]): 39 µL/min/mg
